Measured values from paper PMC12441861, “Next-Generation Lipid Prodrugs Orally Deliver Tenofovir via Enhanced Chylomicron Incorporation” (ACS Pharmacology & Translational Science, 2025).
Like-named read-outs stand apart in the source and are kept apart here.

Columns and labels:
[1] = Cytotoxicity, ATP luminescence (Cell Titer Glow) assay; conditions: human
[2] = Metabolic stability in mouse liver microsomes; format: in vitro ADME; conditions: pH 7.4, read-out: Metabolic Stability MLM t1/2
[3] = Mouse oral PK and tissue distribution, fed state; format: in vivo; conditions: for Tmax / AUC(0-t) / Cmax: male, C57BL/6, mouse; for AUC(0-t): read-out: Plasma AUC0-18h; for improvement in lung AUC over TXL / improvement in lung AUC over non-BOG counterpart (21a vs 15a, 21b vs 15b) / increase in plasma AUC relative to TXL / increase in plasma AUC relative to non-BOG counterpart (21a vs 15a, 21b vs 15b) / increase in plasma Cmax relative to TXL / increase in plasma Cmax relative to non-BOG counterpart (21a vs 15a, 21b vs 15b): 10 mg/kg oral
Excerpt: Given the increased packaging of the CF3-modified lipids into CMs compared to their ω-unmodified congeners, we selected these compounds for PK studies in mice. We hypothesized that, following oral administration, our modified prodrugs would favor CM-mediated transport into the lymphatics over absorption into mesenteric veins feeding into the portal system. By circumventing direct transport to the liver, these prodrugs are expected to achieve elevated levels in the lung relative to the liver, as lymph empties into the jugular venous angle and mixes with blood en route to the pulmonary arteries (Figure ). For all mouse PK experiments, prodrugs were formulated in a 9:1 mixture of olive oil and ethanol, then administered to male C57BL/6 mice via oral gavage at a dose of 10 mg/kg. Organs (liver, lung, and plasma) were harvested at 1, 2, 4, 8, and 18 h postdose, per the protocol described by our groups previously. Concentrations of prodrug were quantified using LC-MS/MS after tissue homogenization, extraction, and sample preparation.
The compounds TXL, 15a, 15b, 21a, 21b, and a vehicle control were prepared at a concentration of 1 mg/mL in a 90:10 solution of olive oil (Sigma-Aldrich, cat. No. O1514) and 190-proof ethanol. The dosing for each mouse was calculated based on individual body weights to achieve a final dose of 10 mg/kg. For example, a 20 g mouse would receive 200 μL of the 1 mg/mL drug formulation, while a 25 g mouse would receive 250 μL.
In accordance with the American Chemical Society Guidelines to Publication of Chemical Research, we affirm the use of standard ethical practices when housing and handling research animals, as ensured by the Emory University’s Institutional Animal Care and Use Committee (IACUC) and the Division of Animal Resources (DAR) through a rigorous protocol review, amendment, and approval process. A total of 220 C57BL6/J male mice (aged 11–12 weeks, weight, 22–30 g) were used for these studies. Each mouse was weighed, recorded, and ear-clipped for identification. The dosing for each mouse was calculated based on individual body weights to achieve a final dose of 10 mg/kg. Animals were anesthetized using isoflurane gas before receiving a single dose of drug prepared as described above using a 22-gauge gavage needle attached to a calibrated syringe.
Time points for tissue collection were 1, 2, 4, 8, and 18 h for unfasted mice, and 1, 2, 4, 8, and 24 h for fasted mice. At each time point, the mice (n = 4 per compound per time point) were anesthetized using isoflurane and subjected to cardiac puncture for blood collection into EDTA-coated tubes. The collected blood samples were immediately placed on ice before the mice were humanely euthanized via cervical dislocation. Brain, liver, lungs, and kidneys were harvested, rinsed in PBS, and placed in prelabeled tubes. Tissues were flash-frozen in liquid nitrogen then transferred to dry ice for storage.
Blood samples were collected into EDTA-coated tubes and centrifuged at 400 RCF for 10 min at 4 °C to separate plasma from the cellular components. The plasma layer was carefully pipetted off and stored in separate prelabeled and preweighed tubes. All tissues were stored at −80 °C until time for processing.
Tissues were weighed (∼50 mg) into homogenization tubes and ACN containing a 10 μM ITSD was added to achieve a final solvent-to-tissue ratio of 4:1. Homogenization beads were added, and the tissues were processed (Biotage Lysera, part no. 19–060) using two 20 s pulses with a 10 s interval period. Homogenate was centrifuged at maximum speed for 1 h, supernatant collected and analyzed via LC-MS using the method described previously. For plasma samples, a 50 μL aliquot was added 200 μL of ACN containing ITSD. The mixture was vortexed thoroughly and then centrifuged to precipitate proteins, with the supernatant collected and analyzed via LC-MS. […]

[4] = system: Caco-2 cells; assay: Control: release of membrane-associated prodrug into media after wash; format: in vitro ADME, human; conditions: 10 μM, 15 min at 37 °C, media at 0, 5 and 15 min postwash
Procedure: After characterizing the impact of membrane dynamics on the packaging of ω-unfunctionalized prodrugs into CMs, we proceeded to screen the ω-CF3-functionalized BOG lipid prodrugs in our CM assay. All collections were done at the 20 h time point to allow full diffusion of prodrug out of the membrane. […] However, CM concentration strongly correlated with c Log D values (R ^2 = 0.89, Figure c), consistent with trends observed for ω-unfunctionalized prodrugs and highlighting the role of lipophilicity on CM incorporation. […] This is further supported by the 2.4-fold increase in CM concentration observed for 15a compared to TXL, where the only difference is the inclusion of the terminal CF3 group. […] Therefore, as an important control experiment, Caco-2 cells were incubated with 10 μM of TXL or compound 21a (n = 6 per group) in the presence of the lipid mixture for 15 min at 37 °C. After incubation, the cells were washed three times with PBS, and fresh drug-free growth media was added. Aliquots of the media were collected at 0, 5, and 15 min postwash. Samples were analyzed by LC-MS/MS for the presence of TXL and 21a.

[5] = in vivo, po, 10 mg/kg, single oral dose 10 mg/kg, fed mice, read-out: Liver Tmax
[6] = in vivo, po, 10 mg/kg, single oral dose 10 mg/kg, fed mice, read-out: Lung Tmax
[7] = in vivo, po, 10 mg/kg, single oral dose 10 mg/kg, fed mice, read-out: Plasma Tmax
[8] = in vivo, single oral dose 10 mg/kg, fed mice
[9] = in vivo, single oral dose 10 mg/kg, fed mice, read-out: Plasma Cmax
[10] = single oral dose 10 mg/kg, fed mice
[11] = liver, single oral dose 10 mg/kg, fed mice, read-out: Liver Tmax
[12] = plasma, single oral dose 10 mg/kg, fed mice
[13] = plasma, single oral dose 10 mg/kg, fed mice, read-out: Plasma Tmax

| improvement in lung AUC over TXL ([3]; fed mice) [fold] | improvement in lung AUC over non-BOG counterpart (21a vs 15a, 21b vs 15b) ([3]; fed mice) [fold] | increase in plasma AUC relative to TXL ([3]; fed mice) [fold] | increase in plasma AUC relative to non-BOG counterpart (21a vs 15a, 21b vs 15b) ([3]; fed mice) [fold] | increase in plasma Cmax relative to TXL ([3]; fed mice) [fold] | increase in plasma Cmax relative to non-BOG counterpart (21a vs 15a, 21b vs 15b) ([3]; fed mice) [fold] | Tmax [3, 11] [h] | Cmax [3, 12] [ng/mL] | AUC(0-t) [3, 12] [ng·h/mL] | SMILES | CC50 at 48 h [1] [nM] | half-life at 3 µM [2] [h] | Tmax [3, 5] [h] | Tmax [3, 6] [h] | Tmax [3, 7] [h] | AUC(0-t) [3, 8] [ng·h/mL] | Cmax [3, 9] [ng/mL] | Liver AUC0-18h [3, 10] | Liver Cmax [3, 10] | Lung Cmax [3, 10] | CC50 at 48 h ([1]; TZM-bl cells) [nM] | further results |
| --- | --- | --- | --- | --- | --- | --- | --- | --- | --- | --- | --- | --- | --- | --- | --- | --- | --- | --- | --- | --- | --- |
|  |  |  |  |  |  |  |  |  | C[C@H](Cn1cnc2c(N)ncnc21)OCP(=O)(O)OCCCOCCCCCCCCCCCCCCCC(F)(F)F [15a, Ammonium[(1R)-2-(6-aminopurin-9-yl)-1-methyl-ethoxy]methyl-[3-(16,16,16-trifluorohexadecoxy)propoxy]phosphinate] | > 1000 | > 2 | 2 | 8 | 2 | 706 | 127 | 190,000 h*ng/g | 27,000 ng/g | 729 ng/g |  |  |
| 10 | 9 | 16 | 7 | 32 | 7 | 4 | 915 | 4710 | C[C@H](Cn1cnc2c(N)ncnc21)OCP(=O)(O)OC[C@H](COCCCCCCCCCCCCCCCC(F)(F)F)OCc1ccccc1 [21a, Ammonium[(1R)-2-(6-Aminopurin-9-yl)-1-methyl-ethoxy]methyl-[(2S)-2-benzyloxy-3-(16,16,16-trifluorohexadecoxy)propoxy]phosphinate] |  | > 2 |  |  |  |  |  | 564,000 h*ng/g | 37,600 ng/g | 7,330 ng/g | > 1000 | Tmax ([3]; lung, po, 10 mg/kg, tissue not stated, read-out: Tmax (fed)): 8 h; Tmax [3, 13]: 1 h; Lung AUC0-18h [3, 10]: 72,300 h*ng/g; prodrug concentration in media postwash [4]: below the limit of detection |
| 4 | 4 | 15 | 5 | 28 | 8 | 4 | 802 | 4530 | C[C@H](Cn1cnc2c(N)ncnc21)OCP(=O)(O)OC[C@H](COCCCCCCCCCCCCCCCCCC(F)(F)F)OCc1ccccc1 [21b, Ammonium[(1R)-2-(6-aminopurin-9-yl)-1-methyl-ethoxy]methyl-[(2S)-2-benzyloxy-3-(18,18,18-trifluorooctadecoxy)propoxy]phosphinate] |  | > 2 |  |  |  |  |  | 218,000 h*ng/g | 22,000 ng/g | 3,000 ng/g | > 1000 | Tmax ([3]; lung, single oral dose 10 mg/kg, fed mice, read-out: Lung Tmax): 8 h; Tmax [3, 13]: 2 h; Lung AUC0-18h [3, 10]: 31,100 h*ng/g |
|  |  |  |  |  |  |  |  |  | CCCCCCCCCCCCCCCCOCCCOP(=O)(O)CO[C@H](C)Cn1cnc2c(N)ncnc21 [TXL, hexadecyloxypropyl (HDP)-TFV, reference compound] | > 1000 | > 2 | 2 | 8 | 8 | 298 | 29.1 | 25,600 h*ng/g | 2,660 ng/g | 583 ng/g |  | Tmax ([3]; in vivo, po, 10 mg/kg, tissue not stated, read-out: Tmax (fed)): 8 h; prodrug concentration in media postwash [4]: below the limit of detection |
